# Test results from patent US4252795A, “N-substituted dimeric cyclopeptide derivatives and preparation thereof” (Ayerst McKenna and Harrison Inc., priority 1978, dated 1981).
# Assays:
# [1] = tested on: Klebsiella pneumoniae; experiment: serial broth dilution, growth inhibition; assay type: cell-based; conditions: nutrient broth, incubated at 37° C. for 2 days, examined for presence of growth
# Procedure: (§1) Grove and W. A. Randall in "Assay Methods of Antibiotics", Med. Encycl. Inc., [New York] 955. […] 289.
# (§2) For example, by employing a test like the serial broth dilution, see Grove and Randall, cited above, in which dilutions of the compounds of this invention in nutrient broth are inoculated with the microorganisms or fungi, described above, incubated at 37° C. for 2 days, respectively, and examined for the presence of growth, it may be shown that the preferred compounds N'N'-dicyclohexyl-α,α'-diisopropyl-2,5,8,11,14,17-hexaoxo-1,4,7,10,13,16-hexaazacyclooctadecane-1,10-diacetamide, isomer L, (Example 1), N'N'-dicyclohexyl-α,α'-diisopropyl-2,5,8,11,14,17-hexaoxo-1,4,7,10,13,16-hexaazacyclooctadecane-1,10-diacetamide, isomer M, (Example 1), and α,α'-diphenyl-N'N'-dicyclohexyl-2,5,8,11,14,17-hexaoxo-1,4,7,10,13,16-hexaazacyclooctadecane-1,10-diacetamide, isomer L, (Example 1) are able to inhibit growth totally in this system of Klebsiella pneumoniae and Serratia marcescens at a concentration of 100 mcg/ml.
# [2] = tested on: Serratia marcescens; experiment: serial broth dilution, growth inhibition; assay type: cell-based; conditions: nutrient broth, incubated at 37° C. for 2 days, examined for presence of growth
# Procedure: as §1, §2
SMILES,concentration able to inhibit growth totally [1] [µg/mL],concentration able to inhibit growth totally [2] [µg/mL]
"CC(C)C(C(=O)NC1CCCCC1)N1CC(=O)NCC(=O)NCC(=O)N(C(C(=O)NC2CCCCC2)C(C)C)CC(=O)NCC(=O)NCC1=O (stereo not drawn) [N,N'-Dicyclohexyl-α,α'-diisopropyl-2,5,8,11,14,17-hexaoxo-1,4,7,10,13,16-hexaazacyclooctadecane-1,10-diacetamide]",100,100
"O=C1CNC(=O)CN(C(C(=O)NC2CCCCC2)c2ccccc2)C(=O)CNC(=O)CNC(=O)CN(C(C(=O)NC2CCCCC2)c2ccccc2)C(=O)CN1 (stereo not drawn) [α,α'-diphenyl-N,N'-dicyclohexyl-2,5,8,11,14,17-hexaoxo-1,4,7,10,13,16-hexaazacyclooctadecane-1,10-diacetamide]",100,100
